pKi: −log10 of the molar value.
Experiments:
Serine protease 1 = target: T1, Serine protease 1 (Bos taurus, UniProt P00760); assay: Enzyme Assay and Determination of the Inhibition Constants.; conditions: pH 7.5; 22 °C
T1 sequence (P00760 whole entry): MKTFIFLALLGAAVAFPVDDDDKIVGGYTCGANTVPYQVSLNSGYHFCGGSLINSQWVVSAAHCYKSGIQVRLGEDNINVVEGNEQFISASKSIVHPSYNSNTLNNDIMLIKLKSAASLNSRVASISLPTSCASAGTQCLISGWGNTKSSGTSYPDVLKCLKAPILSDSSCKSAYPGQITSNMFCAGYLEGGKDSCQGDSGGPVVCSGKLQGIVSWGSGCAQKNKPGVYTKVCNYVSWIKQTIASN

Prothrombin = Prothrombin (Homo sapiens, UniProt P00734); assay: as above; conditions: pH 7.5; 22 °C

## O=C1[C@@H](NS(=O)(=O)c2cc3ncccc3s2)CCN1Cc1cc2ccncc2[nH]1 [N-[(3S)-1-(4,7-diazabicyclo[4.3.0]nona-2,4,8,10-tetraen-8-ylmethyl)-2-oxo-pyrrolidin-3-yl]-7-thia-2-azabicyclo[4.3.0]nona-2,4,8,10-tetraene-8-sulfonamide]
Serine protease 1
  pKi: < 5.54
Prothrombin
  pKi: < 5.40

## N=C(N)c1ccc(O)c(CN2CC[C@H](NS(=O)(=O)c3cc4ncccc4s3)C2=O)c1
Prothrombin
  pKi: < 5.40

## Nc1nccc2ccc(CN3CC[C@H](NS(=O)(=O)c4cc5ncccc5s4)C3=O)cc12 [N-[(3S)-1-[(1-aminoisoquinolin-7-yl)methyl]-2-oxopyrrolidin-3-yl]thieno[3,2-b]pyridine-2-sulfonamide]
Serine protease 1
  pKi: < 5.54
Prothrombin
  pKi: < 5.40
